One test deals with Douglas-fir explants. The experiment in a line: Initiation of embryonal suspensor masses (ESM) from Douglas-fir explants on BM1 initiation medium. In kind it is cell-based. The note with it: for Initiation (#) / Initiation (%): sugar 15000 mg/L in semi-solid BM1 initiation medium, 5-6 weeks, dark. The procedure: Cones were collected from four mother tree crosses (full-sib families) at a time when the embryos were in the pre-dome and dome stage of development. Cones were transferred on blue ice and stored in plastic bags in a cold room at 0-4° C. until needed for dissections. Seeds were removed from cones and dissected on the same day. After the seeds were removed, they were placed into a beaker containing pre-sterilized water. Seeds were divided into aliquots of 60-80 seeds. Each aliquot was placed into a separate pre-sterilized tea strainer before undergoing the following procedure. First, seeds were agitated in 10% Liqui-nox (+2 droppers full Tween-20 per liter) for 10 minutes. After rinsing the seeds in deionized water (18 megaohms) for 30 minutes, the tea strainers were exposed to 20% (v/v) H2O2 for 10 minutes in a fume hood on a rotary shaker (175 rpm). The H2O2 was diluted just before use with sterile, deionized water. Following application of the H2O2, each strainer was placed into a separate beaker of sterile deionized water, covered with foil, and moved into the laminar flow hood. All subsequent steps were carried out in the laminar flow hood. Each tea strainer was rinsed by agitating 4-8 times in each of 5 separate portions of sterile deionized water. The contents of each tea strainer were then dumped into a large petri dish containing a sterile filter paper and a few millimeters of sterile water (to help keep seeds from drying). Seeds were placed into 60×15 mm sterile petri plates containing 0.2 ml sterile deionized water each. Those seeds not dissected after sterilization were thrown out at the end of the day. Dissections were done in clean laminar flow hoods. Clean gloves were worn throughout the preparatory steps and dissection. Sterile forceps and scalpels were used to carefully split the seed, remove the female gametophyte and nucellus, and to split the female gametophyte. The embryo suspensor was pulled out, but kept attached to (or touching) the female gametophyte. Embryo and gametophyte were placed unto initiation medium BM1 so that the embryo was visible through the petri dish lid. Initiation: Half of the embryos and gametophytes (Group 1) from each cross were placed on a semi-solid BM1 initiation medium (Table 2), the other half (Group 2) were placed on semi-solid BM1 initiation medium in which the maltose was replaced with sucrose (15000 mg/L). The explants were held in an environment at 22°-25 C with a 24 hour dark photoperiod for a time of 5-6 weeks. The length of time depends on the particular genotype being cultured. Embryonal suspensor masses (ESM) (White, translucent, and mucilaginous) were observed beginning 2-3 weeks after inoculation. […] Initiation is defined as growth of an embryonal suspensor mass from an explant. Overall, the percentage of ESMs initiated from explants was 27% for Group A and 18% for Group B. Initiation improved for each of the 4 crosses tested when explants were cultured on initiation medium containing maltose (Group A). Overall, the number of explants initiated increased by 51% for explants cultured on initiation medium containing maltose, compared to explants cultured on initiation medium containing sucrose.

Test [1] deals with Douglas-fir embryonal suspensor masses. The experiment in a line: Establishment of embryonal suspensor masses on BM2 maintenance medium. In kind it is cell-based. The note with it: for Initiation (#) (Establishment Frequencies) / Initiation (%) (Establishment Frequencies) / Initiation (%) (Establishment Frequencies); proportion of established ESMs: sugar 30000 mg/L in solid BM2 maintenance medium, 12-15 subcultures. The procedure: Maintenance: After 5-6 weeks, ESMs from Group A were subcultured onto a solid BM2 maintenance medium (Table 2), and ESMs from Group B were subcultured unto a BM2 maintenance medium in which the maltose was replaced with sucrose (30000 mg/L). The maintenance medium differs from the initiation medium in that the growth hormones (both auxins and cytokinins) are reduced by at least a full order of magnitude. Osmolality of this medium was typically raised from that of the initiation medium to about 180 mM/kg or higher (typically within the range of about 180-400 mM/kg) by increasing the concentration of myo-inositol to 0.5% w/v. The temperature and photoperiod were again 22°-25 C. with 24 hours in the dark. ESMs were subcultured every 12 days onto fresh maintenance medium. The number of ESMs established from explants for each group after a total of 12-15 subcultures on maintenance is shown in Table 4. An ESM was considered to be established if it weighed between 250 mg and 500 mg (fresh weight) or if measured 1-2 cms in diameter, after several subcultures. The proportion of established ESMs obtained was 18% for explants in Group A and 11% for explants in Group B. The frequencies of established ESMs improved for each of the 4 crosses tested when explants were cultured on maintenance medium containing maltose (Group A). Overall, the number of established ESMs increased by 51% for explants cultured on maintenance medium containing maltose, compared to explants cultured on maintenance medium containing sucrose.

Molecules are shown by their SMILES.

For the compound `OC[C@H]1O[C@H](O[C@H]2[C@H](O)[C@@H](O)C(O)O[C@@H]2CO)[C@H](O)[C@@H](O)[C@@H]1O` (mixture of isomers) [Group A, maltose], the “Initiation (#)” value is on record as 63 # in the test with Douglas-fir explants (Cross 1); 30 # in the test with Douglas-fir explants (Cross 2); 21 # in the test with Douglas-fir explants (Cross 3); 13 # with Douglas-fir explants (Cross 4); 127 # with Douglas-fir explants (Total of 4 crosses). Further, the “Initiation (%)” value with Douglas-fir explants (Cross 1) is 46%; with Douglas-fir explants (Cross 2), 28%; in the test on Douglas-fir explants (Cross 3), 19%; in the test on Douglas-fir explants (Cross 4), 12%; in the test on Douglas-fir explants (Total of 4 crosses (overall)) it was 27%. In the test on Douglas-fir explants (each of 4 crosses), the “Initiation for each of the 4 crosses tested, compared with sucrose medium” value is listed as “improved”. For the same compound, the “increase in number of explants initiated compared to initiation medium containing sucrose” value in the test on Douglas-fir explants (overall, 4 crosses) was 51%. The “Initiation (#) (Establishment Frequencies)” value in test [1] (Cross 1) is recorded as 36 #; in test [1] (Cross 2), 11 #; in test [1] (Cross 3), 20 #; in test [1] (Cross 4), 17 #; in test [1] (Total of 4 crosses), 84 #. Also, the “Initiation (%) (Establishment Frequencies)” value in test [1] (Cross 1) is 26%; in test [1] (Cross 2), 10%; in test [1] (Cross 3) it was 18%; in test [1] (Cross 4), 15%. Besides, the “Initiation (%) (Establishment Frequencies); proportion of established ESMs” value in test [1] (Total of 4 crosses) stood at 18%. Besides, the “frequencies of established ESMs for each of the 4 crosses tested, compared with sucrose medium” value in test [1] (each of 4 crosses) is “improved”. For the same compound, in test [1] (overall, 4 crosses), the “increase in number of established ESMs compared to maintenance medium containing sucrose” value is given as 51%.
Consider `OC[C@H]1O[C@@](CO)(O[C@H]2O[C@H](CO)[C@@H](O)[C@H](O)[C@H]2O)[C@@H](O)[C@@H]1O` [Group B, sucrose, reference compound], for which the “Initiation (#)” value with Douglas-fir explants (Cross 1) is on record as 42 #; in the test on Douglas-fir explants (Cross 2), 20 #; with Douglas-fir explants (Cross 3), 14 #; in the test on Douglas-fir explants (Cross 4) it was 8 #; in the test on Douglas-fir explants (Total of 4 crosses), 84 #. In addition, the “Initiation (%)” value in the test with Douglas-fir explants (Cross 1) is reported as 30%; in the test with Douglas-fir explants (Cross 2) it was 19%; with Douglas-fir explants (Cross 3), 13%; in the test on Douglas-fir explants (Cross 4) it was 7%; in the test on Douglas-fir explants (Total of 4 crosses (overall)), 18%. The “Initiation (#) (Establishment Frequencies)” value is 20 # in test [1] (Cross 1); 6 # in test [1] (Cross 2); 12 # in test [1] (Cross 3); 13 # in test [1] (Cross 4); 51 # in test [1] (Total of 4 crosses). For the same compound, the “Initiation (%) (Establishment Frequencies)” value in test [1] (Cross 1) is given as 14%; in test [1] (Cross 2) it was 6%; in test [1] (Cross 3) it was 11%; in test [1] (Cross 4) it was 12%. Further, the “Initiation (%) (Establishment Frequencies); proportion of established ESMs” value in test [1] (Total of 4 crosses) came to 11%.

These data come from patent publication US20040237130A1, “Embryogenic culture initiation of douglas-fir by maltose” (Weyerhaeuser Company, priority 2003, published 2004).
